Reference: patent US20070276020A1, “Dicationic Compounds For Activity Against Trichomonas Vaginalis” (priority 2004, published 2007)
Structures can show the parent of a compound that is named as a salt. Where two headings read alike, the source gives them in different places.

Experiments:
[1] = tested on: T. vaginalis CDC reference strain 085 (metronidazole-resistant); test: IC50 assay, tritiated thymidine incorporation, 48 h, metronidazole-resistant strain 085; type: cell-based, Trichomonas vaginalis
Method: (§1) CDC reference strains 085 and 520 that are metronidazole resistant and sensitive, respectively, were maintained at 37° C. in Diamond's trypticase-yeast-maltose medium (TYM; pH 6.0). Metronidazole, tinidazole, pentamidine, and berenil were purchased from Sigma Chemical Co. (St. Louis, Mo., United States of America). Compound 1, see Das, B. P. and D. W. Boykin, J. Med. Chem., 20, 531-536 (1977); Compound 2, see Boykin, D. W., et al., Bioorganic and Med. Chem. Lett., 6:3017-3020 (1996); Compound 3 and Compound 4, see Boykin, D. W., et al., J. Med. Chem., 41, 124-129 (1998); Compound 6, see Francesconi, I., et al., J. Med. Chem., 42, 2260-2265 (1999); Compound 5, see Stephens, C., et al., J. Med. Chem., 44, 1741-1748 (2001); and Compound 9, see Mallena, S. et al., J. Am. Chem. Soc., 126, 13659-13669 (2004); were synthesized as previously reported. Purity was determined by NMR and TLC. The syntheses of 7 and 8 are outlined below. See also Crowell, A. L., et al., Antimicrob. Agents Chemother., 48, 3602-3605 (2004), which is incorporated herein by reference in its entirety.
(§2) Compounds were dissolved in dimethyl sulfoxide (DMSO, Sigma) and further diluted with Diamond's TYM media to reach assay concentrations. Two types of assays were performed on the cationic compounds being evaluated. An initial screen was performed using the standard MLC assay, see Crowell, A. L., et al., Antimicrob. Agents Chemother., 47, 1407-1409 (2003); Meingassner, J. G. and J. Thurner, Antimicrob. Agents Chemother., 15, 254-257 (1979), with a maximum concentration of 20 μM for the test compounds. After 48 h of incubation at 37° C., plates were examined using an inverted phase-contrast microscope. The lowest drug concentration at which no motile trichomonads were observed was recorded as the MLC. Each compound was tested at least twice under both aerobic and anaerobic conditions. Anaerobic conditions were generated using a GASPAK™ jar and CO2-generating GASPAK™ Plus anaerobic system envelopes (Becton Dickinson, Sparks, Md., United States of America) and monitored with GASPAK™ disposable anaerobic indicator strips (Becton Dickinson). […] To further evaluate the compounds' activity, a second type of assay was used to determine the concentration at which 50% of the parasite growth was inhibited (IC50). In these assays, 0.5 μCi of tritiated thymidine (Perkin-Elmer, Boston, Mass., United States of America) was added to each well of a standard assay at the initiation of culture. At 48 h of incubation under either aerobic or anaerobic conditions, cells were harvested onto glass fiber filters (Wallac, Turku, Finland) using a TOMTEC™ cell harvester (Hamden, Conn., United States of America). Incorporated thymidine was detected using BETAPLATE™ (Wallac) scintillation fluid and plate reader. The resulting counts per minute over the compound's concentration range were utilized to calculate IC50s using GRAPHPAD™ PRISM™ (GraphPad Software, Inc., San Diego, Calif., United States of America).

[2] = tested on: T. vaginalis CDC reference strain 520 (metronidazole-sensitive); test: IC50 assay, tritiated thymidine incorporation, 48 h, metronidazole-sensitive strain 520; type: cell-based, Trichomonas vaginalis; conditions: for IC50: Trichomonas vaginalis
Method: as §1, §2

T. vaginalis = test: In vitro assays against T. vaginalis, overall statement in words; type: cell-based, Trichomonas vaginalis
Method: as §2

[3] = tested on: different protozoal infection; conditions: experimental model; cited from earlier work
[4] = tested on: trichomoniasis infections; conditions: cited from earlier work
[5] = metronidazole-sensitive strain 520, aerobic, 48 h
[6] = metronidazole-sensitive strain 520, anaerobic, 48 h
[7] = metronidazole-resistant strain 085, aerobic, 48 h
[8] = metronidazole-resistant strain 085, anaerobic, 48 h
[9] = Trichomonas vaginalis, 48 h, read-out: IC50 values (μM ± SEM) 085 aerobic
[10] = Trichomonas vaginalis, 48 h, read-out: IC50 values (μM ± SEM) 085 anaerobic
[11] = 48 h, read-out: IC50 values (μM ± SEM) 520 aerobic
[12] = 48 h, read-out: IC50 values (μM ± SEM) 520 anaerobic
[13] = Trichomonas vaginalis, metronidazole-resistant strain 085, aerobic, 48 h, read-out: IC50 values (μM ± SEM) 085 aerobic
[14] = Trichomonas vaginalis, metronidazole-resistant strain 085, anaerobic, 48 h, read-out: IC50 values (μM ± SEM) 085 anaerobic
[15] = metronidazole-sensitive strain 520, aerobic, 48 h, read-out: IC50 values (μM ± SEM) 520 aerobic
[16] = metronidazole-sensitive strain 520, anaerobic, 48 h, read-out: IC50 values (μM ± SEM) 520 anaerobic

Row | Compound | IC50 values (μM ± SEM) 520 aerobic [2, 5] | IC50 values (μM ± SEM) 520 anaerobic [2, 6] | effectiveness against T. vaginalis in vitro (T. vaginalis) | IC50 values (μM ± SEM) 085 anaerobic [1, 8] | IC50 [1, 9] [µM] | IC50 [1, 10] [µM] | IC50 [2, 11] [µM] | IC50 [2, 12] [µM] | also measured
1 | 4,4′-Bis{2-[(4-amidino)benzimidazolyl]}biphenyl tetrahydrochloride [Compound 7] | no effect | no effect | effective anti-trichomonads |  |  |  |  |  | activity against metronidazole-resistant 085 strain [1]: has activity; IC50 ([1]; metronidazole-resistant strain 085, aerobic, 48 h, read-out: IC50 values (μM ± SEM) 085 aerobic): 7.79 ± 4.2 µM; IC50 ([1]; metronidazole-resistant strain 085, anaerobic, 48 h, read-out: IC50 values (μM ± SEM) 085 anaerobic): 25.3 ± 43.1 µM; activity against metronidazole-sensitive 520 isolate [2]: not
2 | CC(C)NC(=N)c1ccc2nc(-c3ccc4oc(-c5nc6ccc(C(=N)NC(C)C)cc6[nH]5)cc4c3)[nH]c2c1 (as salt: hydrochloride) [Compound 8, 2,5-Bis{2-[5-(N-isopropylamidino)benzimidazoyl]}benzo[b]furan tetrahydrochloride] |  |  |  |  |  |  |  |  | melting point: 285 to 290 °C
3 | CC(=O)NCC(=O)O.CC(=O)NCC(=O)O.N=C(N)c1ccc(N=NNc2ccc(C(=N)N)cc2)cc1 [Berenil, reference compound] | no effect | no effect | not effective | no effect |  |  |  |  | IC50 values (μM ± SEM) 085 aerobic [1, 7]: no effect
4 | N=C(N)c1ccc(-c2ccc(-c3ccc(C(=N)N)cc3)o2)cc1 [Compound 1, 2,5-Bis(4-amidinophenyl)furan] |  |  |  |  | 8.12 ± 2.45 | 18.6 ± 19.8 | 18.6 ± 6.43 | 57.9 ± 19.6 | effectiveness versus metronidazole and tinidazole against resistant strain 085 ([1]; aerobic conditions): clearly more effective; activity against metronidazole-sensitive 520 isolate [2]: good activity
5 | CONC(=N)c1ccc(-c2ccc(-c3ccc(C(=N)NOC)cc3)o2)cc1 [Compound 2, 2,5-Bis[4-(O-methyloxyamidino)phenyl]furan] | no effect | no effect | generally ineffective | no effect | 39.1 ± 25.1 |  |  |  | 
6 | CC(C)NC(=N)c1ccc(-c2ccc(-c3ccc(C(=N)NC(C)C)cc3)o2)cc1 [Compound 3, 2,5-Bis[4-(N-isopropylamidino)phenyl]furan] |  |  |  |  | 6.44 ± 3.89 | 9.41 ± 7.92 | 6.6 ± 1.76 | 3.91 ± 1.06 | 
7 | N=C(NC1CCCCC1)c1ccc(-c2ccc(-c3ccc(C(=N)NC4CCCCC4)cc3)o2)cc1 [Compound 4, 2,5-Bis[4-(N-cyclohexylamidino)phenyl]-furan] |  |  |  |  | 22.4 ± 13.7 | 10.2 ± 8.47 | 15.9 ± 0.74 | 13.9 ± 3.74 | 
8 | N=C(N)Nc1ccc(-c2ccc(-c3ccc(NC(=N)N)cc3)o2)cc1 [Compound 5, 2,5-Bis-(4-guanidinophenyl)furan] | no effect | no effect | not effective | no effect |  |  |  |  | IC50 values (μM ± SEM) 085 aerobic [1, 7]: no effect
9 | N=C(N)c1ccc(-c2coc(-c3ccc(C(=N)N)cc3)c2)cc1 [Compound 6, 3,5-Bis(4-amidophenyl)furan] | no effect | no effect | not effective | no effect |  |  |  |  | IC50 values (μM ± SEM) 085 aerobic [1, 7]: no effect
10 | CC(C)NC(=N)c1ccc2nc(-c3ccc4oc(-c5nc6ccc(C(=N)NC(C)C)cc6[nH]5)cc4c3)[nH]c2c1 [Compound 8, 2,5-Bis{2-[5-(N-isopropylamidino)benzimidazoyl]}benzo[b]furan tetrahydrochloride] |  |  | effective anti-trichomonads |  | 7.27 ± 3.76 | 37.6 ± 43.9 | 44.7 ± 9.33 | 143 ± 127 | 
11 | N=C(N)c1ccc(-c2ccc(-c3nc4ccc(C(=N)N)cc4[nH]3)s2)cc1 [Compound 9, 2-(4-Amidinophenyl)-5-[2-(5-amidinobenzimidazoyl)]thiophene] |  |  | most effective dication |  | 0.27 ± 0.04 | 0.5 ± 0.42 | 0.98 ± 0.19 | 1.24 ± 0.39 | IC50 ([1]; Trichomonas vaginalis, read-out: IC50 values): ≤ 1 µM; IC50 ([2]; read-out: IC50 values): ≤ 1 µM; in vivo treatment of a different protozoal infection [3]: successfully used; toxicity to the host [3]: without overt evidence of toxicity
12 | Cc1ncc([N+](=O)[O-])n1CCO [Metronidazole, reference compound] |  |  |  |  |  |  |  |  | IC50 [1, 13]: 303 ± 22.2 µM; IC50 [1, 14]: 12.3 ± 23.8 µM; infections successfully treated [4]: 90-95%; IC50 [2, 15]: 18.2 ± 4.25 µM; IC50 [2, 16]: 1.89 ± 0.77 µM
13 | N=C(N)c1ccc(OCCCCCOc2ccc(C(=N)N)cc2)cc1 [Pentamidine, reference compound] | no effect | no effect | not effective | no effect |  |  |  |  | IC50 values (μM ± SEM) 085 aerobic [1, 7]: no effect
14 | CCS(=O)(=O)CCn1c([N+](=O)[O-])cnc1C [Tinidazole, reference compound] |  |  |  |  |  |  |  |  | IC50 [1, 13]: 45.1 ± 5.38 µM; IC50 [1, 14]: 4.81 ± 1.17 µM; IC50 [2, 15]: 1.48 ± 0.12 µM; IC50 [2, 16]: 0.004 µM
